Experimental data as given in patent US20130143800A1, “COMBINATION THERAPIES TO TREAT DIABETES” (RESEARCH DEVELOPMENT FOUNDATION, priority 2011, published 2013).
Read-outs that look alike come from different tables or passages of the source.

Key:
[1] = tested on: HIF1α; assay: Immunoblot of HIF1α in primary hepatocytes; type: cell-based; settings: cultured primary hepatocytes
[2] = tested on: HIF; assay: HRE-luc reporter in primary hepatocytes; type: cell-based; settings: cultured primary hepatocytes
From the text: Plasmids expressing cDNAs for HA-HIF-1α […]/P564A (18955) were purchased from Addgene. HRE-LUC reporter construct was generously provided by Randall Johnson (UCSD).

[3] = tested on: HIF1α; assay: Immunoblot of HIF1α in INS-1 cells; type: cell-based, rat
Protocol: (§1) Immunoblot and immunoprecipitation: Immunoblots were performed as described (Dentin et al., 2008). For immunoprecipitations, cell lysates were incubated with primary antibody and 25 μl of a 50% slurry of protein G agarose beads for 4 hours with rotation at 4° C. Immunoprecipitates were washed with lysis buffer and denatured by boiling in 20 μl SDS sample buffer.
(§2) INS-1 insulinoma cells were cultured in RPMI 1640 (Mediatech) with 10% heat inactivated fetal bovine serum (Sigma), 2 mM glutamine (Mediatech), 1 mM sodium pyruvate (Mediatech), 100 μg/ml penicillin-streptomycin (Mediatech) and 0.05 mM β-mercaptoethanol. HEK 293T cells were cultured in DMEM (Mediatech) with 10% fetal bovine serum and 100 μg/ml penicillin-streptomycin. Forskolin (10 μM), LY294002 (50 μM), and DMOG (1 mM) were added to cells as indicated. Cells were exposed to rapamycin (50 nM) or to cycloheximide (100 μg/ml) overnight. For glucose and Exendin-4 treatments, INS-1 cells were glucose and serum starved for 1 hour, and stimulated with glucose or 2-deoxyglucose (20 mM) with or without Exendin-4 (10 nM). HEK 293T cells were transfected with polyethylenimine (PEI) and INS-1 cells with Lipofectamine2000 (Invitrogen; 11668-019). For HIF-1α translational reporter experiment, INS-1 cells were transfected with pLUXHIF1α5′UTR or pLUX control vector (generous gift of John Blenis). After 24 hours, cells were exposed to rapamycin overnight where indicated. After forskolin treatment, cells were harvested for Renilla/firefly luciferase activity. […]

[4] = tested on: hypoxia-inducible factor (HIF); assay: HRE-luc reporter transient assay in INS-1 cells; type: cell-based, rat
Protocol: (§3) INS-1 insulinoma cells were cultured in RPMI 1640 (Mediatech) with 10% heat inactivated fetal bovine serum (Sigma), 2 mM glutamine (Mediatech), 1 mM sodium pyruvate (Mediatech), 100 μg/ml penicillin-streptomycin (Mediatech) and 0.05 mM β-mercaptoethanol. HEK 293T cells were cultured in DMEM (Mediatech) with 10% fetal bovine serum and 100 μg/ml penicillin-streptomycin. Forskolin (10 μM), LY294002 (50 μM), and DMOG (1 mM) were added to cells as indicated. Cells were exposed to rapamycin (50 nM) or to cycloheximide (100 μg/ml) overnight. For glucose and Exendin-4 treatments, INS-1 cells were glucose and serum starved for 1 hour, and stimulated with glucose or 2-deoxyglucose (20 mM) with or without Exendin-4 (10 nM). HEK 293T cells were transfected with polyethylenimine (PEI) and INS-1 cells with Lipofectamine2000 (Invitrogen; 11668-019). For HIF-1α translational reporter experiment, INS-1 cells were transfected with pLUXHIF1α5′UTR or pLUX control vector (generous gift of John Blenis). After 24 hours, cells were exposed to rapamycin overnight where indicated. After forskolin treatment, cells were harvested for Renilla/firefly luciferase activity. Normalized luciferase activities are shown.
Plasmids expressing cDNAs for HA-HIF-1α P402A/P564A (18955) were purchased from Addgene. HRE-LUC reporter construct was generously provided by Randall Johnson (UCSD).

[5] = tested on: mTORC1; assay: Immunoblot of phospho-S6 in INS-1 cells; type: cell-based, rat; settings: co-incubation of mTOR inhibitor with FSK
Protocol: as §1
as §2, with “Blenis).” for “Blenis). After 24 hours, cells were exposed to rapamycin overnight where indicated. After forskolin treatment, cells were harvested for Renilla/firefly luciferase activity.”

[6] = tested on: INS-1 cells; assay: Cell size determination in INS-1 cells; type: cell-based, rat; settings: co-incubation with FSK
Protocol: For cell size measurements, INS-1 cells were plated on 6 cm dishes, treated as indicated, trypsinized and resuspended in PBS. Cell diameter was measured using a particle size counter.

[7] = tested on: INS-1 insulinoma cells; assay: Gene profiling and Q-PCR of cAMP inducible genes in INS-1 cells; type: cell-based, rat; settings: INS-1 cells exposed to FSK
Protocol: as §3
Gene profiling experiments were performed on total RNA from INS-1 cells using an Affymetrix Rat Gene Array as previously described (Zhang et al., 2005).
mRNA levels were quantified by Q-PCR analysis as previously described (Dentin, 2007). Oligonucleotides were designed to target rat gene sequences.

[8] = cited from earlier work
[9] = mildly hyperglycaemic patients with Type 2 diabetes on metformin; cited from earlier work
[10] = target: human GLP-1 receptor (Homo sapiens, UniProt P43220); settings: greater affinity than native GLP-1; cited from earlier work
Sequence of human GLP-1 receptor (P43220 24-463): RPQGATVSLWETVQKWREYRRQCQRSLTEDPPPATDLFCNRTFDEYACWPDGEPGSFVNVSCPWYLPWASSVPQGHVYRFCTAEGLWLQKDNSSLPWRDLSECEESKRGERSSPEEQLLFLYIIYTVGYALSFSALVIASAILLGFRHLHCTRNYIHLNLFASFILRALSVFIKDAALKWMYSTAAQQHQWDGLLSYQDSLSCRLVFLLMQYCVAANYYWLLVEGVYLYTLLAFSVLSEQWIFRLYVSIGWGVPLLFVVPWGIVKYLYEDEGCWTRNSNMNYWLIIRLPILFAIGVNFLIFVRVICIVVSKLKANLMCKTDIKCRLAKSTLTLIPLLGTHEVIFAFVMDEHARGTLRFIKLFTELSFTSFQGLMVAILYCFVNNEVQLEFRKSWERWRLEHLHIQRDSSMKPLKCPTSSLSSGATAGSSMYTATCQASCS

[11] = plus protein synthesis inhibitor
[12] = prolonged exposure, particularly under high glucose (20 mM)

COC(=O)CNC(=O)C(=O)OC [DMOG, Dimethyloxalyl Glycine]
HIF1α accumulation [1]: triggered | HRE-luc reporter activation [2]: triggered | HIF1α protein levels ([3]; agent alone): increased

C=C[C@@]1(C)CC(=O)[C@]2(O)[C@@]3(C)[C@@H](O)CCC(C)(C)[C@@H]3[C@H](O)[C@H](OC(C)=O)[C@@]2(C)O1 [FSK, Forskolin]
HIF1α accumulation [1]: no effect | HRE-luc reporter activation [2]: no effect

O=S(=O)(NCCNC/C=C/c1ccc(Br)cc1)c1cccc2cnccc12 [H89]
induction of the HRE-luc reporter by FSK ([4]; co-incubation with inhibitor): blocked | induction of the HRE-luc reporter by IBMX ([4]; co-incubation with inhibitor): blocked

CC(C)Cn1c(=O)n(C)c(=O)c2[nH]cnc21 [IBMX]
HRE-luc reporter activity ([4]; time not stated): increased

CC(C)n1nc(-c2cc3cc(O)ccc3[nH]2)c2c(N)ncnc21 [PP242]
effects of FSK on S6 phosphorylation [5]: blocked | effects of FSK on cell size [6]: blocked | effects of FSK on HIF1α induction ([3]; co-incubation of mTOR inhibitor with FSK): blocked

C[C@@H]1C[C@@H]([C@H](O)CC2CC(=O)NC(=O)C2)C(=O)[C@@H](C)C1 [cycloheximide]
expression of CREB target genes [7, 11]: enhanced | expression of late phase genes like HMOX1 by FSK [7, 11]: reduced

CO[C@H]1C[C@@H]2CC[C@@H](C)[C@@](O)(O2)C(=O)C(=O)N2CCCC[C@H]2C(=O)O[C@H]([C@H](C)C[C@@H]2CC[C@@H](O)[C@H](OC)C2)CC(=O)[C@H](C)/C=C(\C)[C@@H](O)[C@@H](OC)C(=O)[C@H](C)C[C@H](C)/C=C/C=C/C=C/1C [rapamycin]
induction of CREB target genes such as NR4A2 ([7]; plus rapamycin): no effect

Albiglutide
half-life ([8]; after administration): four to seven

Exendin-4: GLP-1 agonist
HRE-luc reporter activity [4, 12]: increased | HIF1α protein accumulation [3, 12]: increased

Lixisenatide
half-life ([8]; in vivo): 2.5 to 4 h | glycaemic control [9]: significantly improve | affinity for the human GLP-1 receptor compared with native GLP-1 [10]: approximately 4 fold
